pIC50: −log10 of the molar value. Values after ≈ are worked out from the molar mass of the structure shown. Some results are limits rather than exact numbers.

In general, inhibition refers to the percentage by which the read-out fell short of the control. One may read the kinetic solubility as the concentration staying in solution when a stock, usually in DMSO, is diluted into the medium. Usually pIC50 stands for the IC50 on a negative log10 scale, so that one unit is a factor of ten. A word on the logD: it is lipophilicity at a set pH, counting ionised and neutral species. A high value points to higher lipophilicity.

One series concerns CYP2D6 (Homo sapiens). The series is described as follows: Inhibition of CYP2D6 in human liver microsomes assessed as reduction in apparent rate of formation of metabolites using dextromethorphan as substrate at 20 uM by LC-MS analysis. The conditions noted are these: probe dextromethorphan. (In general: Liver microsomes are a subcellular fraction often used to study metabolism.)

A further series concerns the target hERG (KCNH2) (Homo sapiens, UniProt Q12809). The series is described as follows: Inhibition of human ERG at 10 uM by fluorescence polarization assay. (In general: Fluorescence polarisation rises when a labelled molecule tumbles more slowly, as on binding a larger partner.)
In a further series the target is T1, CYP1A2 (Homo sapiens, UniProt P05177).
T1 sequence (P05177 whole entry): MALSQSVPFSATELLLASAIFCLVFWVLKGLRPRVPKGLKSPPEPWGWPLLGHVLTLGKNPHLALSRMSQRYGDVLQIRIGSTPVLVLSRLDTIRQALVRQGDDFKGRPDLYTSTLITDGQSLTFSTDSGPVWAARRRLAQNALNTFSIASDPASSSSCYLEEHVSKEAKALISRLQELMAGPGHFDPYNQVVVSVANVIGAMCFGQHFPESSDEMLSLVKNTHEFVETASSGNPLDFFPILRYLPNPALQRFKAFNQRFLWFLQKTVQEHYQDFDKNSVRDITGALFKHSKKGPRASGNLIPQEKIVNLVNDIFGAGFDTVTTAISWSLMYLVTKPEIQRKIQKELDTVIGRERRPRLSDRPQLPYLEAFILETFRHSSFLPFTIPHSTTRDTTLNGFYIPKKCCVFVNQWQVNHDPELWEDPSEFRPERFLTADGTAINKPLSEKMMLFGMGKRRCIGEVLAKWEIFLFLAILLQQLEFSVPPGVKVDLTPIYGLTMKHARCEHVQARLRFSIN
The series is described as follows: Inhibition of CYP1A2 in human liver microsomes assessed as reduction in apparent rate of formation of metabolites using phenacetin as substrate at 20 uM by LC-MS analysis. The series is classed as ADME. The conditions noted are these: probe phenacetin.

A short description of series [1]: Solubility of the compound in 0.01 M HCl at pH 2 by nephelometry. The series is classed as physicochemical.
The nature of series [2]: Plasma protein binding in human by LC-MS analysis. The note with it: read-out: PPB (converted). The series is classed as ADME, cell-free.
The nature of series [3]: Solubility of the compound in phosphate buffer at pH 6.5 by nephelometry. The series is classed as physicochemical.
Series [4] deals with Proto-oncogene tyrosine-protein kinase Src (Homo sapiens) (UniProt P12931). The experiment in a line: Inhibition of Src (unknown origin) at 1 uM.
Series [5] is described as follows: In vitro intrinsic clearance in human liver microsomes at 1 uM by LC-MS analysis. The conditions noted are these: read-out: CLH. The series is classed as ADME.
Another series addresses LIM domain kinase 2 (Homo sapiens, UniProt P53671). The experiment in a line: Inhibition of LIMK2 (unknown origin).
In series [6] the target is Serine/threonine-protein kinase PAK 1 (Homo sapiens) (UniProt Q13153). The experiment in a line: Inhibition of PAK1 (unknown origin) at 1 uM.
Series [7] is described as follows: In vitro intrinsic clearance in mouse liver microsomes at 1 uM by LC-MS analysis. The note with it: read-out: CLH. The series is classed as ADME.
Series [8] has as its target T2, LIM domain kinase 1 (Homo sapiens, UniProt P53667). The series is described as follows: Inhibition of LIMK1 (unknown origin) assessed as ADP formation using cofilin-2 protein as substrate measured after 60 mins incubation with enzyme by Transcreener assay.
Series [9] concerns the target Rho-associated protein kinase 2 (Homo sapiens) (UniProt O75116). The experiment in a line: Inhibition of ROCK2 (unknown origin) at 1 uM.
A short description of series [10]: Partition coefficient, log D of the compound at pH 7.4 by HPLC analysis. The series is classed as physicochemical. The conditions noted are these: octanol/water.
Series [11] has as its target Tyrosine-protein kinase JAK1 (Homo sapiens) (UniProt P23458). The experiment in a line: Inhibition of JAK1 (unknown origin) at 1 uM.
Series [12] concerns the target Serine/threonine-protein kinase PAK 4 (Homo sapiens) (UniProt O96013). The series is described as follows: Inhibition of PAK4 (unknown origin) at 1 uM.
The target of series [13] is Tyrosine-protein kinase JAK2 (Homo sapiens) (UniProt O60674). The experiment in a line: Inhibition of JAK2 (unknown origin) at 1 uM.
In another series the target is CYP3A4 (Homo sapiens, UniProt P08684). The experiment in a line: Inhibition of CYP3A4 in human liver microsomes assessed as reduction in apparent rate of formation of metabolites using midazolam or testosterone as substrate at 20 uM by LC-MS analysis. The note with it: probe midazolam or testosterone. The series is classed as ADME.
The target in series [14] is T3, Tyrosine-protein kinase JAK3 (Homo sapiens) (UniProt P52333).
T3 sequence (whole entry): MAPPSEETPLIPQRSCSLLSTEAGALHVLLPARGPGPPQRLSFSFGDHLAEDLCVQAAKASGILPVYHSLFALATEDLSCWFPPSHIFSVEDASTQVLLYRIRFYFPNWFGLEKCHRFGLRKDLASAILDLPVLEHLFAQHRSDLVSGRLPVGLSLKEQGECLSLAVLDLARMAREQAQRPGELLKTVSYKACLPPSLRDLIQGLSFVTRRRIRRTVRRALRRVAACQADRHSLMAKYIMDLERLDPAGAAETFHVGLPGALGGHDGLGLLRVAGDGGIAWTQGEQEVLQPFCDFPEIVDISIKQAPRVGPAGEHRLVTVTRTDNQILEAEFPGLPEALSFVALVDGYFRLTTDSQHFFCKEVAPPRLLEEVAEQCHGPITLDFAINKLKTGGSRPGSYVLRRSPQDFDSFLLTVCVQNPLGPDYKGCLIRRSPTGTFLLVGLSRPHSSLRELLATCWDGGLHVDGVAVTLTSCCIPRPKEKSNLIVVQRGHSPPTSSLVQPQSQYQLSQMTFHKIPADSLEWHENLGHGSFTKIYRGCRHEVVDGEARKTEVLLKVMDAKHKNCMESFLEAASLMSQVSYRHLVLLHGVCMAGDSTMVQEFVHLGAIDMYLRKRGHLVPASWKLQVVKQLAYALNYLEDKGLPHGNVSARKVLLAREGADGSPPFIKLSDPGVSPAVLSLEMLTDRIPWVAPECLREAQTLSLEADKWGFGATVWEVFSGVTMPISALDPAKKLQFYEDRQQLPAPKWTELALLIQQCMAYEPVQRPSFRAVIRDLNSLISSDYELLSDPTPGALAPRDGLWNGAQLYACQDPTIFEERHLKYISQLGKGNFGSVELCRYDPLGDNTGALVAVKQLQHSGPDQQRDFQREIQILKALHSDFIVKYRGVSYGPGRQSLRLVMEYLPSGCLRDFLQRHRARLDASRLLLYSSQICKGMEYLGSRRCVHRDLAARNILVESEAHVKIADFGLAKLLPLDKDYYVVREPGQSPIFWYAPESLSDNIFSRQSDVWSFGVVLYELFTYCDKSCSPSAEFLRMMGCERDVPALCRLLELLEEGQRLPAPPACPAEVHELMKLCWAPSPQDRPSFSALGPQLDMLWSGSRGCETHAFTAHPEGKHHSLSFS
The experiment in a line: Inhibition of JAK3 (unknown origin) at 1 uM.

The target of series [15] is Tyrosine-protein kinase Lck (Homo sapiens) (UniProt P06239). The series is described as follows: Inhibition of Lck (unknown origin) at 1 uM.
Series [16] has as its target T2, LIM domain kinase 1. The experiment in a line: Inhibition of LIMK1-catalyzed cofilin phosphorylation in human ZR-75-1 cells. The series is classed as cell-based.

T2 sequence (P53667 whole entry, the tested form may be a part): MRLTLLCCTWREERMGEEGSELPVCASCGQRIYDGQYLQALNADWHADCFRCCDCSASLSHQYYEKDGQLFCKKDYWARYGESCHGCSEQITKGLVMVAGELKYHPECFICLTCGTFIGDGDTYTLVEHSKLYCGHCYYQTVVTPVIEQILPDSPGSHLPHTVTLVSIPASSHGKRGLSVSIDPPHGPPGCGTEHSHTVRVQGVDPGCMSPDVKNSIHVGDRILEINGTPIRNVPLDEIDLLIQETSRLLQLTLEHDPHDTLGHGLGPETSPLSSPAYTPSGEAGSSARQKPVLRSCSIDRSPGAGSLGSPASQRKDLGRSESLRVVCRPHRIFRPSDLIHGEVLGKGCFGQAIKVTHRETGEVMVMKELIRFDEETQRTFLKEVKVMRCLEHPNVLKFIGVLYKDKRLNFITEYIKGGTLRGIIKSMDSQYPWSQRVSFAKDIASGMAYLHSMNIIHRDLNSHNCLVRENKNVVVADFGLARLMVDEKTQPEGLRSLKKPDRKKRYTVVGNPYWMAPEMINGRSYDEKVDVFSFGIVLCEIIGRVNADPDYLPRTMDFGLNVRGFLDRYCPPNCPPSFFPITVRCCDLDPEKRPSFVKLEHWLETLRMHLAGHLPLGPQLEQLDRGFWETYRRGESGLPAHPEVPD
Sequence of Serine/threonine-protein kinase PAK 4 (Homo sapiens) (O96013 whole entry, looked up): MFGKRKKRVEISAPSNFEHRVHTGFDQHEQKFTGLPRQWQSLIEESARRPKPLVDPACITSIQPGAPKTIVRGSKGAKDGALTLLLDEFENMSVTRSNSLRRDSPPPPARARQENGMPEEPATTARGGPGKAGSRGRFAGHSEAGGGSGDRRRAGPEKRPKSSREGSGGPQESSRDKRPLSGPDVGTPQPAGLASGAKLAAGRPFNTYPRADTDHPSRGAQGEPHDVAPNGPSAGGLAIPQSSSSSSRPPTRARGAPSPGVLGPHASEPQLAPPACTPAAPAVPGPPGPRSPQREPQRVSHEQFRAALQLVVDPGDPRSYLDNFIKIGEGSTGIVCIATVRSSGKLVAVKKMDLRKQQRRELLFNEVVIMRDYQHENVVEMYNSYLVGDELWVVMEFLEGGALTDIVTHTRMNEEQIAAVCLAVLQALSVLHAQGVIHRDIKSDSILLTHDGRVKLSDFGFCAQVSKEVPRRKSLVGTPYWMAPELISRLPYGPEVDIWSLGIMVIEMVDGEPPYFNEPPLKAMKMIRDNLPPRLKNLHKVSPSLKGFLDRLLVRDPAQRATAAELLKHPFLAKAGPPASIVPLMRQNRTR
Sequence of LIM domain kinase 2 (P53671 whole entry, the tested form may be a part): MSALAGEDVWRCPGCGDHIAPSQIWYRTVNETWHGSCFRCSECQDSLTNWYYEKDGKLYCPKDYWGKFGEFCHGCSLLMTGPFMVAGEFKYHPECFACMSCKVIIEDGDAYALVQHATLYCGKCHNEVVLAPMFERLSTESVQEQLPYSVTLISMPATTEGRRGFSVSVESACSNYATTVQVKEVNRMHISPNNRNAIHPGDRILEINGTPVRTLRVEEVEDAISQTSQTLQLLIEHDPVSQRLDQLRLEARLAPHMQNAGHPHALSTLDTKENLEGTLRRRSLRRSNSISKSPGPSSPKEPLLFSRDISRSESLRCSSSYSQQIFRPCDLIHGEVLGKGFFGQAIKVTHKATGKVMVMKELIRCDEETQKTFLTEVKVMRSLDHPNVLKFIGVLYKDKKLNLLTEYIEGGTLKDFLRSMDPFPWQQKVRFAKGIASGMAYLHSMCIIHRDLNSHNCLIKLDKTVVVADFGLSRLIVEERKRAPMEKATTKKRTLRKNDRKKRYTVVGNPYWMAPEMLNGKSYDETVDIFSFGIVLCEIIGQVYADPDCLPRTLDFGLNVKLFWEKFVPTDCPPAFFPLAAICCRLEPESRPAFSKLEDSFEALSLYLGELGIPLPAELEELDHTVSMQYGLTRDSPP
Sequence of Tyrosine-protein kinase Lck (Homo sapiens) (P06239 2-509 limits assumed): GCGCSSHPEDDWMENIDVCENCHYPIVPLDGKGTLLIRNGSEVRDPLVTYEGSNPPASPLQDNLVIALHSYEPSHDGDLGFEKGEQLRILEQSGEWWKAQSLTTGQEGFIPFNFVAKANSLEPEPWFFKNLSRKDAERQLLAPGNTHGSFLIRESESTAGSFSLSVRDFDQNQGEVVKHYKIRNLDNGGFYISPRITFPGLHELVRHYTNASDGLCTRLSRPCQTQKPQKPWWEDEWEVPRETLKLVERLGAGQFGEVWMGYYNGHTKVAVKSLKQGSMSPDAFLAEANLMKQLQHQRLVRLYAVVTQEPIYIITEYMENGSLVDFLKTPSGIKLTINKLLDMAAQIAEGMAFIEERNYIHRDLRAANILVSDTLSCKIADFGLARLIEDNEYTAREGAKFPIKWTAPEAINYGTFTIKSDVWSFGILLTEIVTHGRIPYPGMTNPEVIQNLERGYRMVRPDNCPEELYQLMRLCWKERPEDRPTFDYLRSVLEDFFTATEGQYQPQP
Sequence of Serine/threonine-protein kinase PAK 1 (Homo sapiens) (Q13153 whole entry): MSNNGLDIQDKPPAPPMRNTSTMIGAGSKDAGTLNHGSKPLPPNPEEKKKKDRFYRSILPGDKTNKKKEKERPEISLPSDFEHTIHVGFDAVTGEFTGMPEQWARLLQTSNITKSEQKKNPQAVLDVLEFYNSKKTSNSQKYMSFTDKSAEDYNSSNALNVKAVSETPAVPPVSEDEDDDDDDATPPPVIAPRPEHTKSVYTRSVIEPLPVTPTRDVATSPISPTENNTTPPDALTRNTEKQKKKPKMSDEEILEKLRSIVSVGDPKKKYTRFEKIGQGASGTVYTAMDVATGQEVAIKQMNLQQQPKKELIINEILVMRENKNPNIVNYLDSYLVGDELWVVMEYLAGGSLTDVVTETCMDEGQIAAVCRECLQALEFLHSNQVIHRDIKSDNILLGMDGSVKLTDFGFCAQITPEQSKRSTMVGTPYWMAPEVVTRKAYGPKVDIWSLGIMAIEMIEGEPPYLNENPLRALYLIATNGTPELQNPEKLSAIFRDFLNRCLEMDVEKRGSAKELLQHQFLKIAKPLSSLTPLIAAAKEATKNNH
Sequence of CYP3A4 (P08684 whole entry): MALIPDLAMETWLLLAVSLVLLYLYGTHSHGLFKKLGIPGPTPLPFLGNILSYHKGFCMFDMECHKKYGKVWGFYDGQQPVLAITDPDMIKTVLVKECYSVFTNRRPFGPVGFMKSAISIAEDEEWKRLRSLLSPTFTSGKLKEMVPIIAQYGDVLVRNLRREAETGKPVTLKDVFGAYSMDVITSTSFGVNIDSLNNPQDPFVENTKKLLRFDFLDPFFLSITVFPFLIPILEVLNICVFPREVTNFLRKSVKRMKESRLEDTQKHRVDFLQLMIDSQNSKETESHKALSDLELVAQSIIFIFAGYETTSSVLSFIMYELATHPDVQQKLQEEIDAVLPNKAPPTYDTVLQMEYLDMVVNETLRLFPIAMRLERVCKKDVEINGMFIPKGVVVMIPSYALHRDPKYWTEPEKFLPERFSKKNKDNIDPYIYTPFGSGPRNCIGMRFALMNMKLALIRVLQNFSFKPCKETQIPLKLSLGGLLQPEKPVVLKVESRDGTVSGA
Sequence of Rho-associated protein kinase 2 (Homo sapiens) (O75116 whole entry, looked up): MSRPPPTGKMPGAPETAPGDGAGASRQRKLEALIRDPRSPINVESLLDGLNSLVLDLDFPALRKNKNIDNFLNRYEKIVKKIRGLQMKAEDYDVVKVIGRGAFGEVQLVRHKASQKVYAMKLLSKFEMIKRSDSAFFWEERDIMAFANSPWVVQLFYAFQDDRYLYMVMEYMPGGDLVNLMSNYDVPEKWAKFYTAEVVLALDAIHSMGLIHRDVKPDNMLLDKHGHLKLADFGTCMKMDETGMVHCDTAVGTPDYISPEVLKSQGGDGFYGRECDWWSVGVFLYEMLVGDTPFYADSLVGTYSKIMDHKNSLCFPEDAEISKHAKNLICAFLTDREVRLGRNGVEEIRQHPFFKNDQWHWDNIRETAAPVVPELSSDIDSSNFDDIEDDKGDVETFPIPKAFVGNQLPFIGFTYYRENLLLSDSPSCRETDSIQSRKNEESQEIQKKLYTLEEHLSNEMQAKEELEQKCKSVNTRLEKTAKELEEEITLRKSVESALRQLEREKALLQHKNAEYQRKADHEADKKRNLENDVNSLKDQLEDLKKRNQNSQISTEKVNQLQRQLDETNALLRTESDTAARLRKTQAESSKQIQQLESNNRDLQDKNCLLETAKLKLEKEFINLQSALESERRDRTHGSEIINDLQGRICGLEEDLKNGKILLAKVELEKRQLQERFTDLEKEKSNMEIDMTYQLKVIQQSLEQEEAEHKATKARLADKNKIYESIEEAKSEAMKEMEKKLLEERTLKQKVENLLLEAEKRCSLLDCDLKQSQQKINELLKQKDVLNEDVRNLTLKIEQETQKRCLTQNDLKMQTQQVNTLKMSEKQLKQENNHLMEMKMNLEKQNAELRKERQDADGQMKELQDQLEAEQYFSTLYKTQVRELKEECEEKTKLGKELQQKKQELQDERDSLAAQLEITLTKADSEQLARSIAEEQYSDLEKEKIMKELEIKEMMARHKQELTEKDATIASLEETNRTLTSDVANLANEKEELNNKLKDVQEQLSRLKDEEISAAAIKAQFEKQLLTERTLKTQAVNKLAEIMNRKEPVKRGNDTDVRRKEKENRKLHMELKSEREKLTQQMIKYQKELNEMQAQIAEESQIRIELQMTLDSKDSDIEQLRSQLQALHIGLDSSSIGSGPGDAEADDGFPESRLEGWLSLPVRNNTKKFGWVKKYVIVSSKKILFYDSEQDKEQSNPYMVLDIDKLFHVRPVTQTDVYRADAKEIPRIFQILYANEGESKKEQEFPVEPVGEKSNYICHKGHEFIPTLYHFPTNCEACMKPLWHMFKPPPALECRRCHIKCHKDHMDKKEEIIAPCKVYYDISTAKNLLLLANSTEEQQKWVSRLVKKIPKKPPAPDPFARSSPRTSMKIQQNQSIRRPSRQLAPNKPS

In the case of `CN1CCN(C(=O)Nc2cccc(-c3ccc4c(c3)sc3c(N)ncnc34)c2)CC1`, the inhibition at 20 µM in the series with CYP2D6 (Homo sapiens) was found to be 12%; at CYP1A2 it was 11%; at CYP3A4, 82%. The inhibition at 10 µM at hERG (KCNH2) came out at 27%. Besides, the solubility (kinetic) in series [1] was over 100 µg/mL; in series [3], 12.5 µg/mL (≈ 29.9 µM). Besides, the fraction unbound in series [2] is 0.037. Besides, the inhibition in series [4] amounted to 71%; in series [6], 33%; in series [9], 24%; in [11] it was 25%; in [12], 0%; in [13] it was 88%. In addition, the results for the inhibition in [14] and in series [15] were 53% and 75%, respectively. In addition, the microsomal CLint at 1 µM was determined as 165 µL/min/mg in series [5] and 27 µL/min/mg in series [7]. Besides, the negative logarithm of the IC50 (pIC50) is 6.80 against LIM domain kinase 2, 7.02 at LIM domain kinase 1 [8] and 5.80 at LIM domain kinase 1 [16]. The same molecule had a log distribution coefficient (logD) in series [10] of 2.5.

The values above are taken from ChEMBL document CHEMBL3390844, “Development of substituted 7-phenyl-4-aminobenzothieno[3,2-d] pyrimidines as potent LIMK1 inhibitors” (Medchemcomm, 2011).
